{"source": "patent US8192962B2", "about": "“Processes for detecting toxic substances” (Daikin Industries, Ltd., priority 2001, dated 2012)", "test_system": "DNA repair protein genes", "experiment": "DNA chip mRNA expression in yeast, DNA repair protein genes (Table 3)", "format": "cell-based, Saccharomyces cerevisiae S288C", "conditions": "incubated two hours, concentrations as in the 1st table", "in_short": "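First, S288C yeast grown in YPD at 25° C. are dosed in log phase with one toxicant (growth-inhibiting, not lethal) for 2 h. Next, total RNA is extracted and poly(A) mRNA isolated and reverse-transcribed with Cy3/Cy5-dUTP. Finally, whole-genome chip fluorescence is read relative to unexposed cells.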", "note": "Where “and” joins values, the source holds several entries; their conditions need not be identical. Identical values can stand only once.", "data": [{"smiles": "Oc1cc(Cl)c(Cl)cc1Cl", "note": "[(6), 2,4,5-trichlorophenol]", "values": [{"measurement": "The level of expressed mRNA in the presence of chemical substance/The level of expressed mRNA in the absence of chemical substance", "setting": "yeast gene YAL015C", "result": 0.7}, {"measurement": "The level of expressed mRNA in the presence of chemical substance/The level of expressed mRNA in the absence of chemical substance", "setting": "yeast gene YBL019W", "result": 1.0}, {"measurement": "The level of expressed mRNA in the presence of chemical substance/The level of expressed mRNA in the absence of chemical substance", "setting": "yeast gene YBR073W", "result": 0.7}, {"measurement": "The level of expressed mRNA in the presence of chemical substance/The level of expressed mRNA in the absence of chemical substance", "setting": "yeast gene YCR014C", "result": 1.1}, {"measurement": "The level of expressed mRNA in the presence of chemical substance/The level of expressed mRNA in the absence of chemical substance", "setting": "yeast gene YDL017W", "result": 1.1}, {"measurement": "The level of expressed mRNA in the presence of chemical substance/The level of expressed mRNA in the absence of chemical substance", "setting": "yeast gene YDL059C", "result": 1.2}, {"measurement": "The level of expressed mRNA in the presence of chemical substance/The level of expressed mRNA in the absence of chemical substance", "setting": "yeast gene YDL200C", "result": 0.6}, {"measurement": "The level of expressed mRNA in the presence of chemical substance/The level of expressed mRNA in the absence of chemical substance", "setting": "yeast gene YDR054C", "result": 1.9}, {"measurement": "The level of expressed mRNA in the presence of chemical substance/The level of expressed mRNA in the absence of chemical substance", "setting": "yeast gene YDR369C", "result": 0.6}, {"measurement": "The level of expressed mRNA in the presence of chemical substance/The level of expressed mRNA in the absence of chemical substance", "setting": "yeast gene YEL019C", "result": 1.5}, {"measurement": "The level of expressed mRNA in the presence of chemical substance/The level of expressed mRNA in the absence of chemical substance", "setting": "yeast gene YEL037C", "result": 0.6}, {"measurement": "The level of expressed mRNA in the presence of chemical substance/The level of expressed mRNA in the absence of chemical substance", "setting": "yeast gene YER162C", "result": 0.7}, {"measurement": "The level of expressed mRNA in the presence of chemical substance/The level of expressed mRNA in the absence of chemical substance", "setting": "yeast gene YFL014W", "result": 9.3}, {"measurement": "The level of expressed mRNA in the presence of chemical substance/The level of expressed mRNA in the absence of chemical substance", "setting": "yeast gene YGL058W", "result": "1.0 and 1.5"}, {"measurement": "The level of expressed mRNA in the presence of chemical substance/The level of expressed mRNA in the absence of chemical substance", "setting": "yeast gene YGL091C", "result": 1.6}, {"measurement": "The level of expressed mRNA in the presence of chemical substance/The level of expressed mRNA in the absence of chemical substance", "setting": "yeast gene YGL127C", "result": 0.6}, {"measurement": "The level of expressed mRNA in the presence of chemical substance/The level of expressed mRNA in the absence of chemical substance", "setting": "yeast gene YGL163C", "result": 0.9}, {"measurement": "The level of expressed mRNA in the presence of chemical substance/The level of expressed mRNA in the absence of chemical substance", "setting": "yeast gene YGL249W", "result": 2.5}, {"measurement": "The level of expressed mRNA in the presence of chemical substance/The level of expressed mRNA in the absence of chemical substance", "setting": "yeast gene YGR180C", "result": "0.6 and 1.0"}, {"measurement": "The level of expressed mRNA in the presence of chemical substance/The level of expressed mRNA in the absence of chemical substance", "setting": "yeast gene YGR231C", "result": 1.9}, {"measurement": "The level of expressed mRNA in the presence of chemical substance/The level of expressed mRNA in the absence of chemical substance", "setting": "yeast gene YGR258C", "result": 2.2}, {"measurement": "The level of expressed mRNA in the presence of chemical substance/The level of expressed mRNA in the absence of chemical substance", "setting": "yeast gene YHR164C", "result": 1.4}, {"measurement": "The level of expressed mRNA in the presence of chemical substance/The level of expressed mRNA in the absence of chemical substance", "setting": "yeast gene YIL036W", "result": 1.8}, {"measurement": "The level of expressed mRNA in the presence of chemical substance/The level of expressed mRNA in the absence of chemical substance", "setting": "yeast gene YIL072W", "result": 1.2}, {"measurement": "The level of expressed mRNA in the presence of chemical substance/The level of expressed mRNA in the absence of chemical substance", "setting": "yeast gene YIL143C", "result": 1.4}, {"measurement": "The level of expressed mRNA in the presence of chemical substance/The level of expressed mRNA in the absence of chemical substance", "setting": "yeast gene YIL153W", "result": 0.9}, {"measurement": "The level of expressed mRNA in the presence of chemical substance/The level of expressed mRNA in the absence of chemical substance", "setting": "yeast gene YIR002C", "result": 2.2}, {"measurement": "The level of expressed mRNA in the presence of chemical substance/The level of expressed mRNA in the absence of chemical substance", "setting": "yeast gene YJL026W", "result": 1.0}, {"measurement": "The level of expressed mRNA in the presence of chemical substance/The level of expressed mRNA in the absence of chemical substance", "setting": "yeast gene YJR046W", "result": 2.0}, {"measurement": "The level of expressed mRNA in the presence of chemical substance/The level of expressed mRNA in the absence of chemical substance", "setting": "yeast gene YJR052W", "result": 1.4}, {"measurement": "The level of expressed mRNA in the presence of chemical substance/The level of expressed mRNA in the absence of chemical substance", "setting": "yeast gene YKL145W", "result": 2.1}, {"measurement": "The level of expressed mRNA in the presence of chemical substance/The level of expressed mRNA in the absence of chemical substance", "setting": "yeast gene YLR103C", "result": 1.1}, {"measurement": "The level of expressed mRNA in the presence of chemical substance/The level of expressed mRNA in the absence of chemical substance", "setting": "yeast gene YLR233C", "result": 0.8}, {"measurement": "The level of expressed mRNA in the presence of chemical substance/The level of expressed mRNA in the absence of chemical substance", "setting": "yeast gene YLR288C", "result": 1.2}, {"measurement": "The level of expressed mRNA in the presence of chemical substance/The level of expressed mRNA in the absence of chemical substance", "setting": "yeast gene YML032C", "result": 0.9}, {"measurement": "The level of expressed mRNA in the presence of chemical substance/The level of expressed mRNA in the absence of chemical substance", "setting": "yeast gene YMR035W", "result": 1.5}, {"measurement": "The level of expressed mRNA in the presence of chemical substance/The level of expressed mRNA in the absence of chemical substance", "setting": "yeast gene YMR072W", "result": "1.6 and 2.4"}, {"measurement": "The level of expressed mRNA in the presence of chemical substance/The level of expressed mRNA in the absence of chemical substance", "setting": "yeast gene YMR096W", "result": 2.2}, {"measurement": "The level of expressed mRNA in the presence of chemical substance/The level of expressed mRNA in the absence of chemical substance", "setting": "yeast gene YMR284W", "result": "0.8 and 1.2"}, {"measurement": "The level of expressed mRNA in the presence of chemical substance/The level of expressed mRNA in the absence of chemical substance", "setting": "yeast gene YNL213C", "result": 1.7}, {"measurement": "The level of expressed mRNA in the presence of chemical substance/The level of expressed mRNA in the absence of chemical substance", "setting": "yeast gene YNL250W", "result": 0.8}, {"measurement": "The level of expressed mRNA in the presence of chemical substance/The level of expressed mRNA in the absence of chemical substance", "setting": "yeast gene YNL261W", "result": 1.3}, {"measurement": "The level of expressed mRNA in the presence of chemical substance/The level of expressed mRNA in the absence of chemical substance", "setting": "yeast gene YNL312W", "result": 1.7}, {"measurement": "The level of expressed mRNA in the presence of chemical substance/The level of expressed mRNA in the absence of chemical substance", "setting": "yeast gene YOL043C", "result": 0.8}, {"measurement": "The level of expressed mRNA in the presence of chemical substance/The level of expressed mRNA in the absence of chemical substance", "setting": "yeast gene YOR005C", "result": 1.3}, {"measurement": "The level of expressed mRNA in the presence of chemical substance/The level of expressed mRNA in the absence of chemical substance", "setting": "yeast gene YOR386W", "result": 3.3}, {"measurement": "The level of expressed mRNA in the presence of chemical substance/The level of expressed mRNA in the absence of chemical substance", "setting": "yeast gene YPL022W", "result": 5.2}, {"measurement": "The level of expressed mRNA in the presence of chemical substance/The level of expressed mRNA in the absence of chemical substance", "setting": "yeast gene YPL164C", "result": 1.7}, {"measurement": "The level of expressed mRNA in the presence of chemical substance/The level of expressed mRNA in the absence of chemical substance", "setting": "yeast gene YPL194W", "result": 1.1}, {"measurement": "The level of expressed mRNA in the presence of chemical substance/The level of expressed mRNA in the absence of chemical substance", "setting": "yeast gene YPR025C", "result": 0.9}]}]}
